Values quoted from earlier work in patent publication US10945991B2, “Use and pharmaceutical composition for liver fibrosis prevention and/or treatment” (Cojet Biotech Inc., priority 2018, dated 2021).

Test system: RAW 264.7 cell line

In the case of `Cc1cc(O)c2c(c1O)OCO2` [MBDD, 5-methyl-benzol[1,3]dioxole-4,7-diol], the “NO production induced by lipopolysaccharide” value (RAW 264.7 cell line, effect may result from cytotoxicity) is listed as “reduce the NO production” and the cytotoxicity (RAW 264.7 cells) is listed as “strong cytotoxicity”.
